Measured values published in article PMC6803848, “Exploring New Structural Features of the 18β-Glycyrrhetinic Acid Scaffold for the Inhibition of Anaplastic Lymphoma Kinase” (Molecules, 2019).
In brackets after ≈: the same amount, converted by molar mass.

Columns and labels:
A549 = test: MTT antiproliferative assay, A549 cells; type: cell-based; details: Homo sapiens; for inhibition at 2 µg/mL: A549, 2 μg/mL; for inhibition at 2 µg/mL / inhibition at 20 µg/mL: 48 h, MTT, read-out: Antiproliferative activity (growth inhibition, %); for inhibition at 20 µg/mL: A549, 20 μg/mL; for IC50: A549, MTT
Protocol: (§1) All the cells were seeded in 96-well plates and incubated with 5% CO2 at 37 °C for 24 h. Next, the compounds and the reference were dissolved into the culture medium. The final concentration of DMSO in the medium was less than 0.5%. After the cells were treated with compounds for 48 h, the supernatant was removed and 5 mg/mL of a fresh prepared solution of MTT was added to each well and incubated with the cells at 37 °C for another 4 h. The medium was removed, and 100 μL of testing solution was added to each well. After an overnight incubation with 5% CO2 at 37 °C, the absorbance was measured at 490/630 nm by the microplate reader. The IC50 was calculated using GraphPad Prism version 6.0 software (San Diego, CA, USA) from the non-linear curve.

HT29 = test: MTT antiproliferative assay, HT29 cells; type: cell-based; details: Homo sapiens, HT-29; for inhibition at 2 µg/mL: HT29, 2 μg/mL; for inhibition at 2 µg/mL / inhibition at 20 µg/mL: 48 h, MTT, read-out: Antiproliferative activity (growth inhibition, %); for inhibition at 20 µg/mL: HT29, 20 μg/mL; for IC50: HT29, MTT
Protocol: as §1

MCF-7 = test: MTT antiproliferative assay, MCF-7 cells; type: cell-based; details: Homo sapiens, MCF7; MCF-7, MTT
Protocol: as §1

Karpas299 = test: MTT antiproliferative assay, Karpas299 cells; type: cell-based; details: Homo sapiens, KARPAS-299
Protocol: as §1

PC-3 = test: MTT antiproliferative assay, PC-3 cells; type: cell-based; details: Homo sapiens; PC-3, MTT
Protocol: as §1

HepG2 = test: MTT antiproliferative assay, HepG2 cells; type: cell-based; details: Homo sapiens
Protocol: as §1

Structure (SMILES): CC1(C)C2CC[C@]3(C)[C@H](C(=O)C=C4[C@@H]5C[C@@](C)(C(=O)O)CC[C@]5(C)CC[C@]43C)[C@@]2(C)CC[C@@H]1OC(=O)Nc1ccc(C(F)(F)F)cc1 (stereo partly drawn) [3i, 3β-(((4-(trifluoromethyl)phenyl)carbamoyl)oxy)-11-oxo-olean-12-en-30-oic acid]
- melting point: 242.1 to 242.9 °C
- inhibition at 2 µg/mL (A549): 15.9%
- inhibition at 20 µg/mL (A549): 87.5%
- inhibition at 2 µg/mL (HT29): 19.4%
- inhibition at 20 µg/mL (HT29): 90.1%

Structure (SMILES): CC1(C)C2CC[C@]3(C)[C@H](C(=O)C=C4[C@@H]5C[C@@](C)(C(=O)O)CC[C@]5(C)CC[C@]43C)[C@@]2(C)CC[C@@H]1OC(=O)Cc1ccc(F)cc1 (stereo partly drawn) [7b, 3β-(2-(4-fluorophenyl)acetoxy)-11-oxo-olean-12-en-30-oic acid]
- melting point: 305 to 307.7 °C
- inhibition at 2 µg/mL (A549): 15.3%
- inhibition at 20 µg/mL (A549): 31.2%
- inhibition at 2 µg/mL (HT29): 44.1%
- inhibition at 20 µg/mL (HT29): 59%

Structure (SMILES): COc1ccc(NC(=O)O[C@H]2CC[C@@]3(C)C(CC[C@]4(C)[C@@H]3C(=O)C=C3[C@@H]5C[C@@](C)(C(=O)N6CCOCC6)CC[C@]5(C)CC[C@]34C)C2(C)C)cc1 (stereo partly drawn) [4m, 3β-(((4-methoxyphenyl)carbamoyl)oxy)-30-morpholino-olean-12-ene-11,30-dione]
- melting point: 305 to 306.7 °C
- inhibition at 2 µg/mL (A549): 0%
- inhibition at 20 µg/mL (A549): 8.11%
- inhibition at 2 µg/mL (HT29): 15.7%
- inhibition at 20 µg/mL (HT29): 23.2%

Structure (SMILES): CC1(C(=O)O)CCC2(C)CCC3(C)C(=CC(=O)C4C5(C)CCC(OC(=O)Cc6ccc(Cl)cc6)C(C)(C)C5CCC43C)C2C1 (stereo not drawn) [7a, 3β-(2-(4-chlorophenyl)acetoxy)-11-oxo-olean-12-en-30-oic acid]
- melting point: 312 to 312.7 °C
- inhibition at 2 µg/mL (A549): 11.3%
- inhibition at 20 µg/mL (A549): 27.4%
- inhibition at 2 µg/mL (HT29): 33.3%
- inhibition at 20 µg/mL (HT29): 57.5%

Structure (SMILES): CC1(C(=O)N2CCOCC2)CCC2(C)CCC3(C)C(=CC(=O)C4C5(C)CCC(OC(=O)Nc6ccc(OC(F)(F)F)cc6)C(C)(C)C5CCC43C)C2C1 (stereo not drawn) [4n, 3β-(((4-(trifluoromethoxy)phenyl)carbamoyl)oxy)-30-morpholino-olean-12-ene-11,30-dione]
- melting point: 308 to 310.1 °C
- inhibition at 2 µg/mL (A549): 0%
- inhibition at 20 µg/mL (A549): 0%
- inhibition at 2 µg/mL (HT29): 7.12%
- inhibition at 20 µg/mL (HT29): 40.2%

Structure (SMILES): CC1(C)C2CC[C@]3(C)[C@H](C(=O)C=C4[C@@H]5C[C@@](C)(C(=O)O)CC[C@]5(C)CC[C@]43C)[C@@]2(C)CC[C@@H]1OC(=O)Nc1ccc(Cl)c(Cl)c1 (stereo partly drawn) [3a, 3β-(((3,4-dichlorophenyl)carbamoyl)oxy)-11-oxo-olean-12-en-30-oic acid]
- melting point: 260 to 261.4 °C
- IC50 (MCF-7): 9.31 µg/mL (≈ 14.1 µM)
- inhibition at 2 µg/mL (A549): 23.9%
- inhibition at 20 µg/mL (A549): 95.9%
- IC50 (A549): 11.2 µg/mL (≈ 17 µM)
- inhibition at 2 µg/mL (HT29): 11.3%
- inhibition at 20 µg/mL (HT29): 98%
- IC50 (HT29): 11.4 µg/mL (≈ 17.4 µM)
- IC50 (Karpas299): 12.3 µg/mL (≈ 18.7 µM)
- IC50 (PC-3): 11.9 µg/mL (≈ 18.1 µM)
- IC50 (HepG2): 11.6 µg/mL (≈ 17.6 µM)

Structure (SMILES): Cc1ccc(NC(=O)O[C@H]2CC[C@@]3(C)C(CC[C@]4(C)[C@@H]3C(=O)C=C3[C@@H]5C[C@@](C)(C(=O)N6CCOCC6)CC[C@]5(C)CC[C@]34C)C2(C)C)cc1Cl (stereo partly drawn) [4f, 3β-(((3-chloro-4-methylphenyl)carbamoyl)oxy)-30-morpholino-olean-12-ene-11,30-dione]
- melting point: 293.7 to 295.6 °C
- inhibition at 2 µg/mL (A549): 0%
- inhibition at 20 µg/mL (A549): 0%
- inhibition at 2 µg/mL (HT29): 7.1%
- inhibition at 20 µg/mL (HT29): 18.4%

Structure (SMILES): CC1(C)C2CC[C@]3(C)[C@H](C(=O)C=C4[C@@H]5C[C@@](C)(C(=O)O)CC[C@]5(C)CC[C@]43C)[C@@]2(C)CC[C@@H]1OC(=O)Nc1ccc(OC(F)(F)F)cc1 (stereo partly drawn) [3n, 3β-(((4-(trifluoromethoxy)phenyl)carbamoyl)oxy)-11-oxo-olean-12-en-30-oic acid]
- melting point: 256.4 to 258.4 °C
- IC50 (MCF-7): 9.3 µg/mL (≈ 13.8 µM)
- inhibition at 2 µg/mL (A549): 20.1%
- inhibition at 20 µg/mL (A549): 97.1%
- IC50 (A549): 7.42 µg/mL (≈ 11 µM)
- inhibition at 2 µg/mL (HT29): 19%
- inhibition at 20 µg/mL (HT29): 97.7%
- IC50 (HT29): 11.3 µg/mL (≈ 16.8 µM)
- IC50 (Karpas299): 26 µg/mL (≈ 38.5 µM)
- IC50 (PC-3): 13.3 µg/mL (≈ 19.8 µM)
- IC50 (HepG2): 12.6 µg/mL (≈ 18.6 µM)
